Test results as given in PubChem BioAssay (NCI).
“And” between values parts separate entries of the source, which are not always exact repeats. Identical values can stand only once.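 Five compound concentrations were applied to cells in 96-well plates for 48 hours; endpoints were derived by simple linear interpolation of the resulting dose-response curve. Here, GI50 denotes the concentration required for 50% inhibition of growth. TGI: concentration producing complete growth inhibition.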

Legend:
Test in all cases: NCI-60 cell line screen, 48 h
[1] = test system: SK-OV-3 ovarian
[2] = test system: HOP-92 NSCLC
[3] = test system: UO-31 renal
[4] = test system: 786-0 renal
[5] = test system: SK-MEL-2 melanoma
[6] = test system: K-562 leukemia
[7] = test system: SF-295 CNS
[8] = test system: KM12 colon
[9] = test system: MOLT-4 leukemia
[10] = test system: MDA-MB-231 breast

Row | Compound | GI50 [1] | TGI [1] | GI50 [2] | TGI [2] | GI50 [3] | TGI [3] | GI50 [4] | TGI [4] | GI50 [5] | TGI [5] | GI50 [6] | TGI [6] | GI50 [7] | TGI [7] | GI50 [8] | TGI [8] | GI50 [9] | TGI [9] | GI50 [10] | TGI [10]
1 | Fc1cccc(COc2ccc(Nc3ncnc4sc(-c5ccco5)cc34)cc2Cl)c1 | > 25 µM | > 25 µM | > 25 µM | > 25 µM | > 25 µM | > 25 µM | > 25 µM | > 25 µM | > 25 µM | > 25 µM | > 25 µM | > 25 µM | > 25 µM | > 25 µM | > 25 µM | > 25 µM | > 25 µM | > 25 µM | > 25 µM | > 25 µM
2 | CC(C)n1c(/C=C/[C@@H](O)C[C@@H](O)CC(=O)O)c(-c2ccc(F)cc2)c2ccccc21 | 19.8 µM and > 51.3 µM | > 100 µM | 0.0329 µM and 0.0368 µM | 0.282 µM and 0.183 µM | 4.91 µM and 3.26 µM | > 100 µM | 4.71 µM and 5.31 µM | > 100 µM | 1.51 µM and 0.983 µM | 30.9 µM and 22.3 µM | 5.94 µM and 6.56 µM | > 100 µM | 0.361 µM and 0.429 µM |  | 16.6 µM and 21.9 µM | > 100 µM | 16.4 µM and 21.9 µM | 67.5 µM and > 100 µM | 0.219 µM | 0.535 µM
3 | S=C(N/N=C/c1cc(Cl)cc(Cl)c1)NC12CC3CC(CC(C3)C1)C2 | 5.06 µM | > 46 µM | 2.5 µM | 12 µM | 4.86 µM | > 100 µM | 8.63 µM | > 100 µM | 7.74 µM | > 30.3 µM | > 100 µM | > 100 µM | 3.92 µM | > 24.5 µM | > 100 µM | > 100 µM | > 100 µM | > 100 µM | 3.99 µM | > 100 µM
4 | CC[C@H](C)[C@H](NC(=O)c1cnccn1)C(=O)N(C)[C@H](C[C@@H](OC(C)=O)c1nc(C(=O)N[C@@H](Cc2ccccc2)C[C@H](C)C(=O)OC)cs1)C(C)C | 1.95 µM | > 33.3 µM | 0.416 µM | 11.4 µM | 2.23 µM | > 33.3 µM | 1.71 µM | > 21.9 µM | 0.827 µM | > 33.3 µM | 0.662 µM | > 33.3 µM | 1.03 µM | > 33.3 µM | 0.107 µM | > 33.3 µM | 2.23 µM | > 33.3 µM | 1.39 µM | 19.6 µM
5 | COc1cc(/C=C2\CN(C)CC3=C2Nc2nc(SC)[nH]c(=O)c2C3c2cc(OC)c(OC)c(OC)c2)cc(OC)c1OC (stereo unspecified) | 3.07 µM | 12.5 µM | 3.4 µM | 10.9 µM | 1.57 µM | 3.44 µM | 4.01 µM | 16.9 µM | 9.92 µM | 33.3 µM |  |  | 2.24 µM | 5.47 µM | 1.7 µM | 3.21 µM | 2.92 µM | 88 µM | 3.14 µM | 13.1 µM
6 | COc1ccc2nc(-c3ccccc3)cc(Nc3cccc(/C(C)=N\O)c3)c2c1 | 6.65 µM | 80.6 µM | 1.93 µM | 5.66 µM | 9.66 µM | > 100 µM | 2.09 µM | 5.15 µM | 55.7 µM | > 100 µM | 4.12 µM | > 100 µM | 2.05 µM | 5.13 µM |  |  | 6.18 µM | > 100 µM | 2.54 µM | 7.62 µM
7 | Cc1cc2c(cc1C)NC1=C(N2)OC(c2c[nH]c3ccc(COc4ccccc4)cc23)C1=O (stereo unspecified) |  | > 100 µM |  | > 100 µM |  | > 100 µM |  | > 100 µM |  | > 100 µM |  | > 100 µM |  | > 100 µM |  | > 100 µM |  | > 100 µM |  | 67.1 µM
8 | O=C(Nc1ccc(OC(F)(F)F)cc1)c1sccc1NCc1ccnc2ccccc12 | 2.42 µM | > 100 µM | 2.5 µM | 19 µM | 2.34 µM | 26.1 µM | 7.53 µM | > 88.1 µM | 1.28 µM | 4.3 µM | 1.61 µM | > 100 µM | 2.63 µM | > 45.7 µM | 3.85 µM | > 56.9 µM | 3.09 µM | > 31.6 µM | 1.98 µM | 15.5 µM
9 | Clc1ccc(COC(Cn2ccnc2)c2ccc(Cl)cc2Cl)cc1 (stereo unspecified) | 4.24 µM | 14.8 µM and 26.8 µM and 35.2 µM | 0.511 µM | 3.42 µM and 24.1 µM and 25.2 µM | 1.44 µM | 5.91 µM and 17.4 µM and 14.6 µM | 1.88 µM | 4.01 µM and 25.8 µM and 26.3 µM | 2.32 µM | 5.08 µM and 28.9 µM and 28.8 µM | 2.8 µM | 10.2 µM and 23.9 µM and 21.1 µM | 1.9 µM | 8.99 µM and 24 µM and 23.6 µM | 3.18 µM | 11 µM and 29.5 µM and 28.4 µM | 2.03 µM | 5.89 µM and 20.7 µM and 18.1 µM | 1.04 µM | 8.48 µM and 26.9 µM and 26 µM
10 | CC(CO)[C@H]1OC(=O)C=C2[C@@]13O[C@@H]3[C@H]1OC(=O)[C@@]3(C)[C@H]4O[C@H]4C[C@@]2(C)[C@@H]13 (stereo partly specified) |  | > 57 µM |  | > 26.9 µM |  | 6.41 µM |  | > 28.1 µM |  | 11.1 µM |  | > 100 µM |  | > 33.4 µM |  | 14.9 µM |  | 3.65 µM |  | > 29.6 µM
11 | O=C(O)c1cc[c]([Hg][S]c2ncnc3nc[nH]c23)cc1 | 10.8 µM | 23.2 µM | 2.21 µM | 23 µM | 4.79 µM | 17 µM | 5.83 µM | 21.9 µM | 4.83 µM | 19.4 µM | 1.7 µM | 15.7 µM | 11.7 µM | > 100 µM | 14.3 µM | > 50.1 µM |  | 15.3 µM | 6.59 µM | 21 µM
12 | Cc1cccc(NC(=O)c2sc3nc4c(cc3c2N)CCCC4)c1C | 0.581 µM | > 100 µM | 0.7 µM | > 100 µM |  | > 100 µM | 0.532 µM | > 100 µM | 0.515 µM | > 100 µM | 0.238 µM | > 100 µM | 0.516 µM | > 100 µM | 0.342 µM | > 100 µM | 0.455 µM | > 100 µM | 1.6 µM | > 100 µM
13 | C=C1C(=O)O[C@@H]2C[C@@]3(C)CC(=O)C=C(C)[C@@H]3C[C@H]12 |  | > 100 µM |  | 55 µM |  | 24.1 µM |  | 31.5 µM |  | 29.8 µM |  |  |  | > 100 µM |  | 37.9 µM |  | 21.8 µM |  | 34 µM
14 | COc1ccc(C2SC(N)=Nc3c2c(C)nn3C(=O)c2ccc(Cl)cc2)cc1OC (stereo unspecified) |  | > 10 µM |  | > 10 µM |  |  |  | > 10 µM |  | > 10 µM |  | > 10 µM |  | > 10 µM |  | > 10 µM |  | > 10 µM |  | > 10 µM
